# According to paper PMC4503694, “The Human Autoantibody Response to Apolipoprotein A-I Is Focused on the C-Terminal Helix: A New Rationale for Diagnosis and Treatment of Cardiovascular Disease?” (PLoS ONE, 2015):
# Legend:
# [1] = test system: human monocyte-derived macrophages; assay: Anti-ApoA-I IgG-mediated IL-6 and TNF-α release from human monocyte-derived macrophages; format: cell-based
# Procedure: Human monocytes were isolated from buffy coats from healthy donors at the Geneva University Hospitals Blood Transfusion Center and differentiated into macrophages by 24 h incubation with IFN-γ (500 U/ml) in complete RPMI-1640 culture medium (10% heat-inactivated FCS, 50 μg/ml streptomycin, 50 U/ml penicillin, 2 mM L-glutamine), as previously described. Assays of anti-ApoA-I IgG-mediated release of IL-6 and TNF-α from human monocyte-derived macrophages was carried out as described previously using a previously determined optimal concentration of polyclonal goat anti-ApoA-I IgG (40 μg/ml). Endotoxin contamination in the assay was excluded using the limulus amebocyte lysate Endochrome assay. Where indicated, anti-ApoA-I IgG was pre-incubated with peptide […] (1 mg/mL) for 2 h at room temperature prior addition to the cells. Each experiment was performed on cells from […] different healthy blood donors. […] We next used a Luminex assay to measure the capacity of peptide […] to inhibit endotoxin-free anti-ApoA-I IgG-mediated proinflammatory cytokine release in human monocyte-derived macrophages (Fig 5a and 5b). As expected from previously published work, anti-ApoA-I IgG elicited a significant increase in production of both in IL-6 and TNF-α when compared to control IgG (Ctl IgG; p<0.0001 for both cytokines). […] We were unable to measure the inhibitory activity of intact purified and delipidated ApoA-I in this assay because traces of endotoxin elicit significant levels of background cytokine secretion (NV and SP, unpublished observations).  Fig 5 Peptide […] inhibits anti-ApoA-I IgG-mediated release of proinflammatory cytokines from cultured human monocyte-derived macrophages. Release of proinflammatory cytokines TNF-α (a) IL-6 (b) from human monocyte-derived macrophages induced by endotoxin-free goat polyclonal anti-ApoA-I IgG was determined with or without preincubation (2 h at room temperature) of the anti-ApoA-I IgG with peptide […] (1 mg/mL) and the corresponding scrambled peptide (Scr Pept). […] Anti-ApoA-I IgG was incubated with the indicated […] concentrations (preincubation 2 h at room temperature) prior to addition to cultured human monocyte-derived macrophages. Levels of proinflammatory cytokines were determined after 24 h culture. Experiments were repeated using cells from three different healthy donors, with results expressed as median, interquartile range (IQR) and range.
# [2] = CD spectroscopy (alpha-helical content); format: physicochemical; settings: 100 μM peptide in water with 1.25% trifluoroethanol, 20°C (Fig 2)
# Procedure: Experiments were carried out in 0.1 cm quartz cell using a Jasco J-710 spectrometer with 100 μM peptide solutions (1.25% trifluoroethanol in water) at 20°C.
# Fig 2 CD spectroscopy of peptide F3L1 indicates increased alpha-helical content. CD spectra of Peptide F and F3L1 were measured at 100μM concentration in water containing 1.25% trifluoroethanol.
# [3] = test system: anti-ApoA-I antibodies in plasma samples from three different patients; assay: Competition ELISA with plasma of three individual anti-ApoA-I-positive patients; format: binding, human; settings: preincubated 2 h at room temperature with peptide, n = 3 (Fig 3)
# Procedure: We next performed ELISA assays using plasma samples from three different anti-ApoA-I autoantibody-positive patients from the cohort pre-incubated with Peptide F, a scrambled version of Peptide F (Table 1), or the stapled peptide F3L1 prior to addition to wells coated with ApoA-I (Fig 3).
# Plasma samples were preincubated (2 h, room temperature) with peptides at the indicated concentrations prior to addition to assay wells. Percent maximal ELISA signals were calculated as 100 × ([signal in well]-[mean background signal (uncoated well)])/ ([mean maximal signal (no peptide)]-[mean background signal]). Results are expressed as mean ± SD (n = 3).
# [4] = test system: RAW cells; assay: Anti-ApoA-I IgG-induced TNF-α release in RAW mouse macrophage cell line; format: cell-based; settings: anti-ApoA-I IgG 100 μg/ml preincubated 2 h with peptide 100 to 0.06 μg/ml; 24 h stimulation; ELISA; n = 3 (Fig 7)
# Procedure: Raw cells were seeded in 96-well plates at 2 × 10^5 cells/well in DMEM culture medium (10% heat-inactivated FCS, 50 μg/ml streptomycin, 50 U/ml penicillin) for 24 h. Anti-Apo-A1 IgG (100 μg/ml) were incubated with peptides across a concentration range from 100 μg/ml to 0.06 μg/ml for 2 h at room temperature prior addition to cells. After 24 h stimulation, mouse TNF-α was quantified in the cell supernatants by ELISA according to manufacturer’s instructions (R&D system, MN).
# Fig 7 Comparing the inhibitory potency of Peptide F and F3L1 on anti-ApoA-I IgG-induced TNF-α. Anti-ApoA-I IgG was incubated with the indicated peptide concentrations (preincubation 2 h at room temperature) prior to addition to cultured RAW cells. Levels of proinflammatory cytokines (TNF-α) were determined after 24 h culture. Mean levels (n = 3) are shown with error bars indicating the range.
# [5] = anti-ApoA-I IgG 40 μg/ml preincubated 2 h at room temperature with peptide 1 mg/mL (342 μM), nine donors, Luminex
substance,measurement,setting,value
"Ac-GLLPVLESFKVSFLSALEEYTKKLNT-NH2 (also: sidechain bridge or staple (positions not given here)) [Peptide F3L1, stapled version of Peptide F with a Glu-Lys lactam bridge]",median IL-6 production,[1]; [5],19.2 pg/mL
same,median TNF-α production,[1]; [5],48.4 pg/mL
same,inhibition of anti-ApoA-I IgG-induced TNF-α and IL-6 release,"[1]; peptide preincubated with anti-ApoA-I IgG 2 h at room temperature, highest concentration 1 mg/mL (Fig 5, 6)",dose-dependent manner
same,cytokine production by peptide compared to control IgG,"[1]; peptide without anti-ApoA-I IgG, trend for TNF-α, p = 0.05",devoid of significant biological activity
same,alpha-helical content by CD,[2],increased alpha-helical content compared to the parent molecule
same,inhibition of binding of anti-ApoA-I IgG to immobilized ApoA-I,[3],consistently improved binding inhibition with respect to Peptide F
same,inhibitory potency on anti-ApoA-I IgG-induced TNF-α,[4],clearly a more potent inhibitor than Peptide F
